{"source": "patent US10729793B2", "about": "“Method for imaging arthritis” (GUY'S AND ST THOMAS' HOSPITAL NHS FOUNDATION TRUST, priority 2015, dated 2020)", "origin": "cited, not measured here", "key": {"[1]": {"conditions": "10 subjects, at 4 months"}, "[2]": {"conditions": "healthy volunteers"}, "αvβ3 integrin": {"target": "αvβ3 integrin (Homo sapiens, UniProt P05106+P06756)", "sequence (P06756 31-889 limits assumed)": "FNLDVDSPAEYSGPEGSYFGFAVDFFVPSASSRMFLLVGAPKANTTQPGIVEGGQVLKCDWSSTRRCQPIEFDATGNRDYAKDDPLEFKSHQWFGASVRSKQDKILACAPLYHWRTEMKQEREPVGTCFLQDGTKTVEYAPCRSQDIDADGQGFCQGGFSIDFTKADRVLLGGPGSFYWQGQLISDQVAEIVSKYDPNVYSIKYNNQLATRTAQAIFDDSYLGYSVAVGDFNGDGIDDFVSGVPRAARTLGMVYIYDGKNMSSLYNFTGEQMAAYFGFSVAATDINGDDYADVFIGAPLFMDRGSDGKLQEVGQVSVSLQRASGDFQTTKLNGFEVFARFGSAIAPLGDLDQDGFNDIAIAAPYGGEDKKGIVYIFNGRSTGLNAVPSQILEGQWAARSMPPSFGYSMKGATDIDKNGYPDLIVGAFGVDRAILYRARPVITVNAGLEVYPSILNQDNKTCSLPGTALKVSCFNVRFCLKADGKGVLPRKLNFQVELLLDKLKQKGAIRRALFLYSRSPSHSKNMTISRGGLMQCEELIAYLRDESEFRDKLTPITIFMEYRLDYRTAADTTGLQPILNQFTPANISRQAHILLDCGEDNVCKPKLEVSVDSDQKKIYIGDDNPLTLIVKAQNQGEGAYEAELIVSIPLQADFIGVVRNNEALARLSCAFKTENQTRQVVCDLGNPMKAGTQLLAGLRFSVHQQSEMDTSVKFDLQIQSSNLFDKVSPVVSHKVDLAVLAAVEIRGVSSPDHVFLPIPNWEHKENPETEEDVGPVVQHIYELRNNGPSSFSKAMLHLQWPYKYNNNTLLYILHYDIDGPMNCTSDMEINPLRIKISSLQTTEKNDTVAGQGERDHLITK", "sequence (P06756 891-1048 partner limits assumed)": "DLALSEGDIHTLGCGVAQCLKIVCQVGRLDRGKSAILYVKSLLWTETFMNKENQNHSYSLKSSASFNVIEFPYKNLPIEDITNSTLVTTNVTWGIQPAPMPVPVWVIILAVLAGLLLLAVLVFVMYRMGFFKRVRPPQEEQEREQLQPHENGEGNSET", "sequence (P05106 27-788)": "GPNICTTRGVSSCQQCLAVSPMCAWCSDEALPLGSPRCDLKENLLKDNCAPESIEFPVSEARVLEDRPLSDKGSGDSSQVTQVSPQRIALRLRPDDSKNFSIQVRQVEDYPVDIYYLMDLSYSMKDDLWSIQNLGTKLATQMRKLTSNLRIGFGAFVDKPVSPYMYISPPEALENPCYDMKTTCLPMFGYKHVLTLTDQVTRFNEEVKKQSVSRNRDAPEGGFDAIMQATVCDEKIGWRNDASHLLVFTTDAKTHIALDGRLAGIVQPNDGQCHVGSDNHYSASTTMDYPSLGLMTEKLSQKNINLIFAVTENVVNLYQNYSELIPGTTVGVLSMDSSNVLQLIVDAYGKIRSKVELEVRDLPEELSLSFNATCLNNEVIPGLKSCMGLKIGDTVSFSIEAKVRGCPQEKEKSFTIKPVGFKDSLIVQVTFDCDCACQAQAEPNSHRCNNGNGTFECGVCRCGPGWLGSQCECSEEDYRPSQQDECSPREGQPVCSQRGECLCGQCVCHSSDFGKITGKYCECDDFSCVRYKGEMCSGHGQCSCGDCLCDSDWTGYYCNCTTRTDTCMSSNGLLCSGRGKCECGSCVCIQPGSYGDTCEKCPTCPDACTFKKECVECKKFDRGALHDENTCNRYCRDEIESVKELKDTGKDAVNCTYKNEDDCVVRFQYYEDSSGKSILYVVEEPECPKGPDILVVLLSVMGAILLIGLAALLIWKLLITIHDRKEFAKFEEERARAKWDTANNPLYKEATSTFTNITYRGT", "conditions": "in vitro studies"}}, "note": "*1 amine or outer side, *2 acyl side, *3 side chain or, on linkers, in order; H or OH if unused. Where a SMILES comes first, the peptide text is derived from it. Bridges are numbered along the chain shown (N, C = ends). Side-chain parts run from the residue outwards. The star is where a group is joined. X1 = C/C(=N/O)C(C)(C)NCCC(CCNC(C)(C)/C(C)=N\\O)CCN*; Glutaryl = O=C(CCCC(=O)[*:2])[*:1]; X2 = NC(=O)COCC(=O)NCCOCCOCCOCCN*", "data": [{"compound": "C/C(=N/O)C(C)(C)NCCC(CCNC(=O)CCCC(=O)NCCCC[C@@H]1NC(=O)CSC[C@@H](C(=O)NCCOCCOCCOCCNC(=O)COCC(N)=O)NC(=O)[C@H](Cc2ccccc2)NC(=O)[C@@H]2CSSC[C@H](NC1=O)C(=O)N[C@@H](CCCNC(=N)N)C(=O)NCC(=O)N[C@@H](CC(=O)O)C(=O)N2)CCNC(C)(C)/C(C)=N\\O", "note": "(stereo partly drawn) [NC100692, maraciclatide] ({CH2CO}-K([Glutaryl-X1])CRGDCFC-X2; disulfide 2-6; thioether N-8)", "values": [{"measurement": "antibodies to the peptide (immunogenicity)", "setting": "[1]", "result": "no detectable antibodies"}, {"measurement": "mean elimination half-life", "setting": "[2]", "result": "approximately one"}, {"measurement": "binding affinity for the αvβ3 integrin", "setting": "αvβ3 integrin", "result": "high binding affinity"}]}]}
